Test results reported in patent US20140274978A1, “Phytosterol spirostane and spirostene derivatives having a wide variety of utilities in humans and other animals” (priority 2013, published 2014).
Read-outs that look alike come from different tables or passages of the source.

Key:
[1] = Oral 5-androsten-3β,17β-diol-7-one diacetate with weight resistance training; format: in vivo, humans
Protocol: Human volunteers familiar with conventional anabolic steroids used 60 mg/day (20 mg tid) 5-androsten-3β,17β-diol-7-one diacetate orally, in conjunction with weight resistance training.

[2] = Oral administration to older dogs (vigor, health); format: in vivo; conditions: for activity, stamina, appetite, stiffness, overall health reported by pet owners / lean muscle mass and body fat: dogs of 7-14 years of age; for activity, stamina, appetite, stiffness, overall health reported by pet owners: 1-10 mg/day in two divided doses; for lean muscle mass and body fat: over 2-3 months administration; for behavior of ailing dogs / age lived to: two Rhodesian Ridgeback dogs; for behavior of ailing dogs: age 13, failure to thrive; for age lived to: daily dosages from age 13
Text: Their appetite and activity increased, they became leaner—leaner muscle, wanted to go for walks and became like a new dog. They lived another 3 years on a daily dosages to age 16. Their treating Veterinarian said he had never seen dogs of their size and breed live to such an advanced age. Numerous similar reports were collected.
See Kokl. Akad. Nauk. Uzb., SSR, 1981, v.3, pp. 31-33. See also Farmakol. Toksikol., 1976, 39(5), pp. 631-35.

[3] = Topical lotion on severely atrophic skin of an elderly person; format: in vivo, humans; conditions: atrophic skin of hands; for skin elasticity and strength: after one month; for traumatic purpurra and venous lakes: two months
Text: Phytosterol derivative compounds of the present invention are also useful as skin agents for animals and useful as cosmetic agents when formulated in preparations which, when applied to the skin, create a penetrating flux that will deliver the compound to both the epidermis and dermis. The preferred lotion formulations are of low irritancy and are generally comprised of either a spirostane or a spirostene or, preferably for synergistic reasons, a combination of both [0.05-0.2% (w/w) combined in a ratio of 2:1 to 1:2] dissolved in a solution consisting of propylene glycol [50-70% (w/w)]. propylene carbonate [15-25% (w/w)], water [10-20% (w/w)], and glycerol [0.12.0% (w/w)]. The steroid solutions are most preferably formulated at 80-90% saturation.
The compounds of invention, when formulated as above, are useful for reversing many aspects of degenerative skin disorders (such as thin, fragile, inelastic skin and weakened dermal blood vessels) due to various causes such as aging or chronic corticosteroid therapy.

[4] = Synergy of 7-keto-diosgenin with laxogenin and/or 5-hydroxy laxogenin (inventor's finding); conditions: 1:1 ratio found effective
[5] = Physical stamina and endurance of hunting dogs; format: in vivo; conditions: 5-10 mg/day
Text: The compounds of invention are also useful for increasing physical stamina and endurance in young working and sporting dogs used for hunting, sled pulling and herding and dogs in competitions such as greyhound racing, field trials, agility, disc dog, dock jumping and Schutzhund.

[6] = Oral administration to aging human volunteers (energy, stamina, sleep); format: in vivo, humans
Protocol: The spirostanic compounds of the invention are also useful in increasing and restoring health and vigor, useful in preventing fatigue, and useful in improving physical condition and performance and increasing work output in aging humans and other mammals. For example, 15 mg of 25R-Spirostan-3B, 5α-diol-6-one was given to a person in three divided doses per day (t.i.d.) for two weeks.
15 mg of 25R-Spirostan-3B, 5α-diol-6-one was given to a person in three divided doses per day (t.i.d.) for two weeks.

androgen receptors = target: T1, androgen receptors (Homo sapiens, UniProt P10275); assay: Competitive binding inhibition studies (Baylor University), androgen receptors; conditions: even at the limits of compound solubility
T1 sequence (P10275 1-920): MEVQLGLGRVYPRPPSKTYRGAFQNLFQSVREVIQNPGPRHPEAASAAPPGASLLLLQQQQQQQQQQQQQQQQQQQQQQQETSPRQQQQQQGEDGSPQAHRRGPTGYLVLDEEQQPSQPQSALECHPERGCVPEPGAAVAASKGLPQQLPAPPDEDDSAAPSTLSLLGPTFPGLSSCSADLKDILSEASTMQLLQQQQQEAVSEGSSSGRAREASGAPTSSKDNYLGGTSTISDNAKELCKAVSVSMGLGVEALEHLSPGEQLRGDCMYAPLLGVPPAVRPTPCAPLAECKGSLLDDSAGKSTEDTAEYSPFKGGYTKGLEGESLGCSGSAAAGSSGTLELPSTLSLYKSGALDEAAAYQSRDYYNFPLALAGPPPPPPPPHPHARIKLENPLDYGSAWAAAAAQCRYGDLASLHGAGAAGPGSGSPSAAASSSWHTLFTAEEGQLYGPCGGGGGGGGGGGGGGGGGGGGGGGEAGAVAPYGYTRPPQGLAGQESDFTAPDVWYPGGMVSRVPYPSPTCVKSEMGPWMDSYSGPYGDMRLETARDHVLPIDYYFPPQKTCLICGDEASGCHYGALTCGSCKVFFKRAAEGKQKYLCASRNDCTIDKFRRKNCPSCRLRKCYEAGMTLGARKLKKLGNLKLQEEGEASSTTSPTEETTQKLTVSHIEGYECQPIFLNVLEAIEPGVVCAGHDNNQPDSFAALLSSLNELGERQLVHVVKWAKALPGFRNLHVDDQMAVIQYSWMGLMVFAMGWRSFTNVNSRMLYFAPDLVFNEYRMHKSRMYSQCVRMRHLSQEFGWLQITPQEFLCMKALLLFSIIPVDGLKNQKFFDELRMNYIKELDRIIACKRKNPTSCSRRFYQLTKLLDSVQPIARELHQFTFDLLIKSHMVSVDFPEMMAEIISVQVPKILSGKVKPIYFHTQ
Text: (§1) Consequently, the spirostane and spirostene compounds of the present invention are expected to be devoid of hormonal activity.

[7] = Life span of a Great Dane on daily administration; format: in vivo, dogs; conditions: 8 mg/day from age 8, upper limit for lineage 10 years
Protocol: The compounds of invention are also useful for lengthening the life span of various large breeds of dogs (and presumably small breeds). One Great Dane. given 25R-Spirostan-3B, 5α-diol-6-one daily (8 mg/day) from age 8 on. lived to be almost 13 years old. The dog had to be euthanized because it suffered from dysplasia in both hips; otherwise it was healthy and active. The upper limit of age for Great Danes of this lineage was previously considered to be 10 years.
A Great Dane that was given 25R-Spirostan-3B, 5α-diol-6-one daily (8 mg/day) from age 8 on lived to be almost 13 years old. The dog had to be euthanized because it suffered from dysplasia in both hips; otherwise it was healthy and active. The upper limit of age for Great Danes of this particular lineage was previously considered to be 10 years.

[8] = cited from earlier work
estrogen receptors = assay: Competitive binding inhibition studies (Baylor University), estrogen receptors; conditions: even at the limits of compound solubility
Text: as §1

[9] = Laxogenin in a person with double knee replacement (pain, recovery); format: in vivo, humans
Protocol: The compounds of the present invention also have the ability to mediate and/or reduce pain in humans and other animals. A person received a double knee replacement due to long time injuries. They began taking 3 doses per day of Laxogenin at 150 mg per dose one week prior to knee surgery.

[10] = rat, in vivo, 25 mg/kg; cited from earlier work
[11] = 3 grams/day for 30 days, humans; cited from earlier work
[12] = labeled ecdysterone 50 mg/kg, mice; cited from earlier work
protein synthesis = conditions: cited from earlier work; for sensitivity of protein stimulation to actinomycin D: Russian report, Biol. Nauki 1984
[13] = 15 mg in three divided doses per day, two weeks, person

For `CC(=O)O[C@H]1CC[C@@]2(C)C(=CC(=O)[C@H]3[C@@H]4CC[C@H](OC(C)=O)[C@@]4(C)CC[C@@H]32)C1` [5-androsten-3β,17β-diol-7-one diacetate], the androgenic side-effects ([1]; 60 mg/day (20 mg tid) orally) was “No subject reported any noticeable androgenic side-effects” and the “strength, endurance and muscle mass accretion” value ([1]; 60 mg/day (20 mg tid) orally with weight resistance training) was “increases in strength and endurance as well as accelerated increases in muscle mass accretion”.
With `C[C@@H]1CC[C@@]2(OC1)O[C@H]1C[C@H]3[C@@H]4C(=O)C=C5C[C@@H](O)CC[C@]5(C)[C@H]4CC[C@]3(C)[C@H]1[C@@H]2C` [7-keto-diosgenin, 5,25R-spirosten-3β-ol-7-one] the “activity, stamina, appetite, stiffness, overall health reported by pet owners” value [2] was “increased activity, playfulness, physical stamina, appetite and interaction with owners, reduced stiffness and weakness, and improved overall health”, the “lean muscle mass and body fat” value [2] was “increased many of the dogs' lean muscle mass while reducing body fat” and the “behavior of ailing dogs” value [2] was “started to exhibit puppy like behavior after 48 hours”. For the same compound, the “age lived to” value [2] was 16, the “skin elasticity and strength” value [3] was “dramatic increases in skin elasticity and strength” and the “traumatic purpurra and venous lakes” value [3] was “Virtually all traumatic purpurra and venous lakes were resolved within two months”. The “synergy with laxogenin and/or 5-hydroxy laxogenin” value [4] was “unexpectedly synergistic” and the “physical stamina and endurance” value [5] was “noticeable improvement in their dogs physical stamina and endurance within one week”.
With `C[C@@H]1CC[C@@]2(OC1)O[C@H]1C[C@H]3[C@@H]4CC(=O)[C@@]5(O)C[C@@H](O)CC[C@]5(C)[C@H]4CC[C@]3(C)[C@H]1[C@@H]2C` [25R-Spirostan-3B, 5α-diol-6-one, (25R)-spirostan-3β-5α-diol-6-one] the “length of time able to work in garden” value [6, 13] was 2-3 times, the “well-being, energy and physical stamina” value [6, 13] was “overall increase in well-being, accompanied by a definite increase in energy and physical stamina” and the total sleep time ([6]; 60 mg/day, over one month, increased from 6 hrs/night) was “approximately 8 hrs/night”. For the same compound, the “physical energy and stamina” value ([6]; 60 mg/day, person and person) was “definite increases in physical energy and stamina within one week”, the “activity, stamina, appetite, stiffness, overall health reported by pet owners” value [2] was “increased activity, playfulness, physical stamina, appetite and interaction with owners, reduced stiffness and weakness, and improved overall health” and the “lean muscle mass and body fat” value [2] was “increased many of the dogs' lean muscle mass while reducing body fat”. For the same compound, the “binding to androgen receptors” value (androgen receptors) was “did not bind”, the “skin elasticity and strength” value [3] was “dramatic increases in skin elasticity and strength” and the “traumatic purpurra and venous lakes” value [3] was “Virtually all traumatic purpurra and venous lakes were resolved within two months”. The “age lived to” value [7] was roughly 13 years, the “physical stamina and endurance” value [5] was “noticeable improvement in their dogs physical stamina and endurance within one week” and the “anabolic activity in older (mature) rats” value ([8]; older (i.e. mature) rats) was “reduced anabolic activity”. For the same compound, the “anabolic activity in young rats” value ([8]; young rats) was “higher anabolic activity” and the “binding to estrogen receptors” value (estrogen receptors) was “did not bind”.
For `C[C@@H]1CC[C@@]2(OC1)O[C@H]1C[C@H]3[C@@H]4CC(=O)[C@H]5C[C@@H](O)CC[C@]5(C)[C@H]4CC[C@]3(C)[C@H]1[C@@H]2C` [Laxogenin, (25R)-3β-hydroxy-5α-spirostan-6-one], the “behavior of ailing dogs” value [2] was “started to exhibit puppy like behavior after 48 hours”, the “age lived to” value [2] was 16 and the pain before surgery ([9]; 3 doses per day at 150 mg per dose, started one week prior to knee surgery) was “pain had diminished their third day”. The standing and walking ([9]; 7th day after surgery) was “could stand and walk far distances free of pain, stiffness and discomfort”, the “need for morphine drip” value ([9]; day after operation) was “able to discontinue their morphine drip altogether” and the “surface inflammation and scarring” value ([9]; liquid version applied topically) was “reduced surface inflammation and scarring greatly”.
In the case of `C[C@@H]1CC[C@@]2(OC1)O[C@H]1C[C@H]3[C@@H]4CC=C5C[C@@H](O)CC[C@]5(C)[C@H]4CC[C@]3(C)[C@H]1[C@@H]2C` [diosgenin], the serum half-life [10] is given as “approximately 14 hours” and the “metabolism in the B-ring” value [11] is given as “not metabolized in the B-ring”.
For `CC(C)(O)CC[C@@H](O)[C@](C)(O)[C@H]1CC[C@@]2(O)C3=CC(=O)[C@@H]4C[C@@H](O)[C@@H](O)C[C@]4(C)[C@H]3CC[C@]12C` [ecdysterone, 20-Hydroxyecdysone], the serum half-life [12] is listed as 8.15 min, the “repression of induced protein synthesis by actinomycin D” value (protein synthesis; Japanese report, Chem. Pharm. Bull. 1969) is listed as “partially repressed” and the “sensitivity of protein stimulation to actinomycin D” value (protein synthesis) is listed as “completely insensitive to actinomycin D”.
For `CC(C)(O)CC[C@@H](O)[C@](C)(O)[C@H]1CC[C@@]2(O)C3=CC(=O)[C@@H]4C[C@@H](O)[C@@H](O)C[C@]4(C)[C@H]3[C@H](O)C[C@]12C` [turkesterone], the “sensitivity of protein stimulation to actinomycin D” value (protein synthesis) is given as “completely insensitive to actinomycin D”.
